{"source": "paper PMC5581131", "about": "“The novel sphingosine-1-phosphate receptors antagonist AD2900 affects lymphocyte activation and inhibits T-cell entry into the lymph nodes” (Oncotarget, 2017)", "key": {"human PBMCs": {"system": "human PBMCs", "assay": "Human allogeneic mixed lymphocyte reaction (MLR), [3H] thymidine incorporation, 1-day pretreatment", "assay_type": "cell-based", "description": "To select an analogue with potential anti-inflammatory activity, the effects of six of our unique synthetic sphingolipid analogues (all chemical structures can be found in Supplementary Figure 1A) on human immune cell activation were examined. Human PBMCs were cultured with the compounds for 1 day at different concentrations. The cells were then activated by PBMCs from a different donor in a mixed lymphocyte reaction (MLR) experiment. […] The amine derivative, AD2900, is substituted with amino diols. Structurally, AD2900 has a hydroxymethyl group on carbon 2 and no phenyl substitution. These characteristics cause AD2900 to be more hydrophilic than other analogues. In addition, previous studies have shown that AD2900 has a higher lethal dose 50% (LD50), which is above 100 mg/kg, and it is stable at room temperature for at least 2 years (unpublished data). Based on these characteristics, AD2900 was selected for further investigation. […]\nHuman PBLs were collected from human whole blood collected from healthy donors. […] For the thymidine incorporation assay, after 4 days of co-culture, cells were pulsed with ^3H-thymidine at 1 μCi (0.037MBq) per well (PerkinElmer, MA, USA) for 16 additional hours and then harvested onto glass-fiber filters. ^3H-thymidine incorporation was measured using Top Count. […]"}, "[1]": {"design": "method as in unpublished data", "conditions": "previous studies; ref unpublished data; cited from earlier work"}}, "data": [{"smiles": "CCCCCCCCCCCCCCCCNC(CO)(CO)CO", "note": "[AD2900]", "values": [{"measurement": "inhibitory effect on lymphocyte activation compared to FTY720 and SEW2817", "setting": "human PBMCs; 1-day pretreatment prior to MLR, concentrations of 6–20 μM", "value": "compromised effect in comparison to FTY720 but a higher inhibitory effect than that with SEW2817"}, {"measurement": "inhibition of PBMC proliferation", "setting": "human PBMCs; 1-day pretreatment, MLR, mean of up to, at the highest concentration", "value": "76% ± 4%"}, {"measurement": "lethal dose 50% (LD50)", "setting": "[1]", "value": "above 100 mg/kg"}]}]}
